Source: patent US20250228863A1, “Methods and Products to Screen and Treat Glioblastoma Multiforme and Other Cancers, Including Breast Cancers, Using A Combination of PI3KINASE Inhibitors With Checkpoint Inhibitors” (GLOBAL CANCER TECHNOLOGY, INC., priority 2022, published 2025)

Key:
MCF7 SEMA7A OE cells = test: MCF7 EV and SEMA7A over-expressing cells treated with endocrine therapy and/or PI3K inhibitor; format: cell-based, human
Method: Cell Culture Protocol: Cells were plated in 10 cm plates at ˜1 million cells/plate and incubated overnight to allow adherence. Cell lines and media that were used included McCoy's 5a modified media for HER2+ breast cancer cell line SKBR3 cells, and for MDA-MB-231, MDA-MB-468, MCF-7, and HS578t, culture medium was DMEM. Cells were then treated with the PI3K inhibitor: 0 uM (control), 1 uM, or 10 uM. Treated cells incubated for ˜72 hours. After incubation, cells were imaged, then harvested with 0.25% trypsin/EDTA and counted using trypan blue viability stain with Nexcelom Cellometer Mini. The MDA-MB-231 cell line is an epithelial, human breast cancer cell line that was established from a pleural effusion of a patient with metastatic mammary adenocarcinoma.
FIG. 13A, FIG. 13B, and FIG. 13C. […] MCF7EV and SEMA7A OE cells were treated for 48 hours with A) fulvestrant (7.5 nM), B} Alpelisib (1 uM), or C) the combination.
FIG. 14A, FIG. 14B, FIG. 14C, FIG. 14D, and FIG. 14E. SEMA7A-expressing cells are sensitive to both Alpelisib and a novel PI3K inhibitor (GCT.BR.1) FIG. 14A) MCF7 cells treated with vehicle, 1 uM Alpelisib and 1 uM GCT.BR.1. Scalebar=10 microns. FIG. 14B) Quantification of A. FIG. 14C) MCF7 S7 OE spheroids in suspension were treated with vehicle (DMSO), 1 uM Alpelisib or 0.5 uM GCT and stained with Calcein green viability dye after 48 h. […]

[1] = orally available; literature statement; cited from earlier work

Cc1nc(NC(=O)N2CCC[C@H]2C(N)=O)sc1-c1ccnc(C(C)(C)C(F)(F)F)c1 [Alpelisib]
sensitivity of SEMA7A-expressing cells (MCF7 SEMA7A OE cells; MCF7, 1 uM, FIG. 14): sensitive

CC1(C)OCCn2c1nc1c(N3CCOCC3)nc(-c3cnc(N)nc3)nc12 [GDC 0084]
blood brain barrier permeation [1]: can permeate the blood brain barrier

C[C@]12CC[C@@H]3c4ccc(O)cc4C[C@@H](CCCCCCCCC[S+]([O-])CCCC(F)(F)C(F)(F)F)[C@H]3[C@@H]1CC[C@@H]2O (stereo partly drawn) [fulvestrant]
response of SEMA7A over-expressing cells to treatment (MCF7 SEMA7A OE cells; 48 hours, fulvestrant 7.5 nM, Alpelisib 1 uM, FIG. 13): respond poorly
